Measurements taken from the supplement of paper PMC10307832.

What was measured:
Experiment in all cases: relative viability (nuclei count vs DMSO), 5 days (fraction); higher = more cells survive
EMC-BAC-2 = system: EMC-BAC-2
Outline: (§1)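 One day after seeding in 1536-well plates, lung cancer cell lines were dosed by pin tool. Dosing was either single-drug or a fixed anchor-drug dose plus five library-drug doses (not always all listed) in √10 steps. After 5 days, nuclei were stained in one fix-and-stain step and counted on 4× images, and relative viability is the nuclei count of treated wells over that of vehicle wells, given as the median of duplicate plates.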

RERF-LC-KJ = system: RERF-LC-KJ
Outline: as §1

NCI-H2126 = system: NCI-H2126
Outline: as §1

NCI-H3122 = system: NCI-H3122
Outline: as §1

EPLC-272H = system: EPLC-272H
Outline: as §1

NCI-H1563 = system: NCI-H1563
Outline: as §1

LOU-NH91 = system: LOU-NH91
Outline: as §1

SW 1573 = system: SW 1573
Outline: as §1

NCI-H1666 = system: NCI-H1666
Outline: as §1

HCC-78 = system: HCC-78
Outline: as §1

LXF-289 = system: LXF-289
Outline: as §1

SW 900 = system: SW 900
Outline: as §1

LCLC-103H = system: LCLC-103H
Outline: as §1

HCC-366 = system: HCC-366
Outline: as §1

HCC-827 = system: HCC-827
Outline: as §1

NCI-H2085 = system: NCI-H2085
Outline: as §1

ChaGo-K-1 = system: ChaGo-K-1
Outline: as §1

NCI-H2405 = system: NCI-H2405
Outline: as §1

NCI-H23 = system: NCI-H23
Outline: as §1

LU99A = system: LU99A
Outline: as §1

LK-2 = system: LK-2
Outline: as §1

NCI-H1975 = system: NCI-H1975
Outline: as §1

SK-LU-1 = system: SK-LU-1
Outline: as §1

**Q.** Which results are given for `C[C@@H]1CN(CC(=O)Nc2ccc3c(c2)Cc2cccc(-c4cc(=O)cc(N5CCOCC5)o4)c2S3)C[C@H](C)O1` + Cc1nc(Nc2ncc(C(=O)Nc3c(C)cccc3Cl)s2)cc(N2CCN(CCO)CC2)n1 [Dasatinib] (partner 0.075 µM)?
**A.** relative viability (EMC-BAC-2; first compound 0.04 µM): 0.386; relative viability (EMC-BAC-2; first compound 0.1265 µM): 0.34; relative viability (EMC-BAC-2; first compound 0.4 µM): 0.394; relative viability (EMC-BAC-2; first compound 4 µM): 0.413; relative viability (RERF-LC-KJ; first compound 0.04 µM): 0.877; relative viability (RERF-LC-KJ; first compound 0.1265 µM): 0.813; relative viability (RERF-LC-KJ; first compound 0.4 µM): 0.782; relative viability (RERF-LC-KJ; first compound 4 µM): 0.665; relative viability (NCI-H2126; first compound 0.04 µM): 0.607; relative viability (NCI-H2126; first compound 0.1265 µM): 0.604; relative viability (NCI-H2126; first compound 0.4 µM): 0.467; relative viability (NCI-H2126; first compound 4 µM): 0.418; relative viability (NCI-H3122; first compound 0.04 µM): 0.797; relative viability (NCI-H3122; first compound 0.1265 µM): 0.838; relative viability (NCI-H3122; first compound 0.4 µM): 0.827; relative viability (NCI-H3122; first compound 4 µM): 0.844; relative viability (EPLC-272H; first compound 0.04 µM): 0.459; relative viability (EPLC-272H; first compound 0.1265 µM): 0.284; relative viability (EPLC-272H; first compound 0.4 µM): 0.319; relative viability (EPLC-272H; first compound 4 µM): 0.341; relative viability (NCI-H1563; first compound 0.04 µM): 0.433; relative viability (NCI-H1563; first compound 0.1265 µM): 0.429; relative viability (NCI-H1563; first compound 0.4 µM): 0.445; relative viability (NCI-H1563; first compound 4 µM): 0.433; relative viability (LOU-NH91; first compound 0.04 µM): 0.588; relative viability (LOU-NH91; first compound 0.1265 µM): 0.51; relative viability (LOU-NH91; first compound 0.4 µM): 0.476; relative viability (LOU-NH91; first compound 4 µM): 0.492; relative viability (SW 1573; first compound 0.04 µM): 0.736; relative viability (SW 1573; first compound 0.1265 µM): 0.613; relative viability (SW 1573; first compound 0.4 µM): 0.515; relative viability (SW 1573; first compound 4 µM): 0.355; relative viability (NCI-H1666; first compound 0.04 µM): 0.831; relative viability (NCI-H1666; first compound 0.1265 µM): 0.805; relative viability (NCI-H1666; first compound 0.4 µM): 0.905; relative viability (NCI-H1666; first compound 4 µM): 0.788; relative viability (HCC-78; first compound 0.04 µM): 0.366; relative viability (HCC-78; first compound 0.1265 µM): 0.363; relative viability (HCC-78; first compound 0.4 µM): 0.362; relative viability (HCC-78; first compound 4 µM): 0.519; relative viability (LXF-289; first compound 0.04 µM): 0.185; relative viability (LXF-289; first compound 0.1265 µM): 0.223; relative viability (LXF-289; first compound 0.4 µM): 0.203; relative viability (LXF-289; first compound 4 µM): 0.232; relative viability (SW 900; first compound 0.04 µM): 0.509; relative viability (SW 900; first compound 0.1265 µM): 0.801; relative viability (SW 900; first compound 0.4 µM): 0.66; relative viability (SW 900; first compound 4 µM): 0.375; relative viability (LCLC-103H; first compound 0.04 µM): 0.451; relative viability (LCLC-103H; first compound 0.1265 µM): 0.436; relative viability (LCLC-103H; first compound 0.4 µM): 0.405; relative viability (LCLC-103H; first compound 4 µM): 0.419; relative viability (HCC-366; first compound 0.04 µM): 0.7; relative viability (HCC-366; first compound 0.1265 µM): 0.636; relative viability (HCC-366; first compound 0.4 µM): 0.427; relative viability (HCC-366; first compound 4 µM): 0.529; relative viability (HCC-827; first compound 0.04 µM): 0.396; relative viability (HCC-827; first compound 0.1265 µM): 0.324; relative viability (HCC-827; first compound 0.4 µM): 0.344; relative viability (HCC-827; first compound 4 µM): 0.311; relative viability (NCI-H2085; first compound 0.04 µM): 0.222; relative viability (NCI-H2085; first compound 0.1265 µM): 0.245; relative viability (NCI-H2085; first compound 0.4 µM): 0.235; relative viability (NCI-H2085; first compound 4 µM): 0.247; relative viability (ChaGo-K-1; first compound 0.04 µM): 0.603; relative viability (ChaGo-K-1; first compound 0.1265 µM): 0.617; relative viability (ChaGo-K-1; first compound 0.4 µM): 0.553; relative viability (ChaGo-K-1; first compound 4 µM): 0.524; relative viability (NCI-H2405; first compound 0.04 µM): 0.226; relative viability (NCI-H2405; first compound 0.1265 µM): 0.187; relative viability (NCI-H2405; first compound 0.4 µM): 0.229; relative viability (NCI-H2405; first compound 4 µM): 0.169; relative viability (NCI-H23; first compound 0.04 µM): 0.751; relative viability (NCI-H23; first compound 0.1265 µM): 0.751; relative viability (NCI-H23; first compound 0.4 µM): 0.711; relative viability (NCI-H23; first compound 4 µM): 0.735; relative viability (LU99A; first compound 0.04 µM): 0.523; relative viability (LU99A; first compound 0.1265 µM): 0.491; relative viability (LU99A; first compound 0.4 µM): 0.488; relative viability (LU99A; first compound 4 µM): 0.523; relative viability (LK-2; first compound 0.1265 µM): 0.301; relative viability (LK-2; first compound 0.4 µM): 0.336; relative viability (LK-2; first compound 4 µM): 0.437; relative viability (NCI-H1975; first compound 0.04 µM): 0.378; relative viability (NCI-H1975; first compound 0.1265 µM): 0.39; relative viability (NCI-H1975; first compound 0.4 µM): 0.368; relative viability (NCI-H1975; first compound 4 µM): 0.249; relative viability (SK-LU-1; first compound 0.04 µM): 0.206; relative viability (SK-LU-1; first compound 0.1265 µM): 0.203; relative viability (SK-LU-1; first compound 0.4 µM): 0.171; relative viability (SK-LU-1; first compound 4 µM): 0.15
